Source: PMC12446476 (Nature Communications, 2025)
Values after ≈ are worked out from the molar mass of the structure shown. Where two headings read alike, the source gives them in different places.

Tested on: N. gonorrhoeae
Assay: MIC determination, Etest
Format: cell-based, Neisseria gonorrhoeae
Details: for MIC: Neisseria gonorrhoeae
Source text: The 2024 WHO N. gonorrhoeae reference strains were used for quality control. Only whole MIC doubling dilutions are reported. Clinical breakpoints or the epidemiological cutoff (ECOFF, to indicate azithromycin resistance) from EUCAST (v14.0, https://www.eucast.org/clinical_breakpoints) were used to classify isolates as antimicrobial susceptible or resistant. […] Two times the standard inoculum defined by CLSI was used to establish consistent growth in untreated control samples for some strains. In vitro time-kill assays were performed according to CLSI guidelines[65] using Columbia Broth (BD Difco) supplemented with 1% IsoVitaleX Enrichment (BD). Viable bacterial counts were generated by plating 10-fold serially diluted samples on GC agar plates containing 1% IsoVitaleX Enrichment (BD).

`CN[C@@H]1[C@H](O)[C@H](NC)[C@H]2O[C@@]3(O)C(=O)C[C@@H](C)O[C@H]3O[C@@H]2[C@H]1O` [Spectinomycin] was tested, and the “susceptibility of all isolates” value (100 contemporary clinical N. gonorrhoeae isolates, EUCAST) was “susceptible”, the MIC (WHO F, Etest, read-out: MIC) was 16 µg/mL (≈ 48.1 µM) and the MIC (WHO H, Etest, read-out: MIC) was 8 µg/mL (≈ 24.1 µM). It also gave an MIC (WHO K, Etest, read-out: MIC) of 16 µg/mL (≈ 48.1 µM), an MIC (WHO L, Etest, read-out: MIC) of 16 µg/mL (≈ 48.1 µM) and an MIC (WHO M, Etest, read-out: MIC) of 16 µg/mL (≈ 48.1 µM). The MIC (WHO O, Etest, read-out: MIC) was > 1020 µg/mL, the MIC (WHO P, Etest, read-out: MIC) was 8 µg/mL (≈ 24.1 µM) and the MIC (WHO Q, Etest, read-out: MIC) was 8 µg/mL (≈ 24.1 µM). For the same compound, the MIC (WHO R, Etest, read-out: MIC) was 8 µg/mL (≈ 24.1 µM), the MIC (WHO S2, Etest, read-out: MIC) was 16 µg/mL (≈ 48.1 µM) and the MIC (WHO U, Etest, read-out: MIC) was 8 µg/mL (≈ 24.1 µM). It also gave an MIC (WHO V, Etest, read-out: MIC) of 16 µg/mL (≈ 48.1 µM), an MIC (WHO X, Etest, read-out: MIC) of 16 µg/mL (≈ 48.1 µM) and an MIC (WHO Y, Etest, read-out: MIC) of 16 µg/mL (≈ 48.1 µM). The MIC (WHO Z, Etest, read-out: MIC) was 16 µg/mL (≈ 48.1 µM), the MIC (comparator antibiotics, clinical N. gonorrhoeae isolate 1, Sweden 2023, read-out: Minimum inhibitory concentration) was 16 µg/mL (≈ 48.1 µM) and the MIC (comparator antibiotics, clinical N. gonorrhoeae isolate 2, Sweden 2023, read-out: Minimum inhibitory concentration) was 8 µg/mL (≈ 24.1 µM). The MIC (comparator antibiotics, clinical N. gonorrhoeae isolate 3, Sweden 2023, read-out: Minimum inhibitory concentration) was 16 µg/mL (≈ 48.1 µM), the MIC (comparator antibiotics, clinical N. gonorrhoeae isolate 4, Sweden 2023, read-out: Minimum inhibitory concentration) was 16 µg/mL (≈ 48.1 µM) and the MIC (comparator antibiotics, clinical N. gonorrhoeae isolate 5, Sweden 2023, read-out: Minimum inhibitory concentration) was 8 µg/mL (≈ 24.1 µM). For the same compound, the MIC (comparator antibiotics, clinical N. gonorrhoeae isolate 6, Sweden 2023, read-out: Minimum inhibitory concentration) was 8 µg/mL (≈ 24.1 µM), the MIC (comparator antibiotics, clinical N. gonorrhoeae isolate 7, Sweden 2023, read-out: Minimum inhibitory concentration) was 16 µg/mL (≈ 48.1 µM) and the MIC (comparator antibiotics, clinical N. gonorrhoeae isolate 8, Sweden 2023, read-out: Minimum inhibitory concentration) was 16 µg/mL (≈ 48.1 µM). The MIC (comparator antibiotics, clinical N. gonorrhoeae isolate 9, Sweden 2023, read-out: Minimum inhibitory concentration) was 8 µg/mL (≈ 24.1 µM), the MIC (comparator antibiotics, clinical N. gonorrhoeae isolate 10, Sweden 2023, read-out: Minimum inhibitory concentration) was 16 µg/mL (≈ 48.1 µM) and the MIC (comparator antibiotics, clinical N. gonorrhoeae isolate 11, Sweden 2023, read-out: Minimum inhibitory concentration) was 16 µg/mL (≈ 48.1 µM). For the same compound, the MIC (comparator antibiotics, clinical N. gonorrhoeae isolate 12, Sweden 2023, read-out: Minimum inhibitory concentration) was 16 µg/mL (≈ 48.1 µM), the MIC (comparator antibiotics, clinical N. gonorrhoeae isolate 13, Sweden 2023, read-out: Minimum inhibitory concentration) was 16 µg/mL (≈ 48.1 µM) and the MIC (comparator antibiotics, clinical N. gonorrhoeae isolate 14, Sweden 2023, read-out: Minimum inhibitory concentration) was 16 µg/mL (≈ 48.1 µM). For the same compound, the MIC (comparator antibiotics, clinical N. gonorrhoeae isolate 15, Sweden 2023, read-out: Minimum inhibitory concentration) was 16 µg/mL (≈ 48.1 µM), the MIC (comparator antibiotics, clinical N. gonorrhoeae isolate 16, Sweden 2023, read-out: Minimum inhibitory concentration) was 8 µg/mL (≈ 24.1 µM) and the MIC (comparator antibiotics, clinical N. gonorrhoeae isolate 17, Sweden 2023, read-out: Minimum inhibitory concentration) was 8 µg/mL (≈ 24.1 µM). The MIC (comparator antibiotics, clinical N. gonorrhoeae isolate 18, Sweden 2023, read-out: Minimum inhibitory concentration) was 16 µg/mL (≈ 48.1 µM), the MIC (comparator antibiotics, clinical N. gonorrhoeae isolate 19, Sweden 2023, read-out: Minimum inhibitory concentration) was 16 µg/mL (≈ 48.1 µM) and the MIC (comparator antibiotics, clinical N. gonorrhoeae isolate 20, Sweden 2023, read-out: Minimum inhibitory concentration) was 16 µg/mL (≈ 48.1 µM). The MIC (comparator antibiotics, clinical N. gonorrhoeae isolate 21, Sweden 2023, read-out: Minimum inhibitory concentration) was 16 µg/mL (≈ 48.1 µM), the MIC (comparator antibiotics, clinical N. gonorrhoeae isolate 22, Sweden 2023, read-out: Minimum inhibitory concentration) was 8 µg/mL (≈ 24.1 µM) and the MIC (comparator antibiotics, clinical N. gonorrhoeae isolate 23, Sweden 2023, read-out: Minimum inhibitory concentration) was 8 µg/mL (≈ 24.1 µM). The MIC (comparator antibiotics, clinical N. gonorrhoeae isolate 24, Sweden 2023, read-out: Minimum inhibitory concentration) was 16 µg/mL (≈ 48.1 µM), the MIC (comparator antibiotics, clinical N. gonorrhoeae isolate 25, Sweden 2023, read-out: Minimum inhibitory concentration) was 8 µg/mL (≈ 24.1 µM) and the MIC (comparator antibiotics, clinical N. gonorrhoeae isolate 26, Sweden 2023, read-out: Minimum inhibitory concentration) was 16 µg/mL (≈ 48.1 µM). For the same compound, the MIC (comparator antibiotics, clinical N. gonorrhoeae isolate 27, Sweden 2023, read-out: Minimum inhibitory concentration) was 8 µg/mL (≈ 24.1 µM), the MIC (comparator antibiotics, clinical N. gonorrhoeae isolate 28, Sweden 2023, read-out: Minimum inhibitory concentration) was 8 µg/mL (≈ 24.1 µM) and the MIC (comparator antibiotics, clinical N. gonorrhoeae isolate 29, Sweden 2023, read-out: Minimum inhibitory concentration) was 16 µg/mL (≈ 48.1 µM). For the same compound, the MIC (comparator antibiotics, clinical N. gonorrhoeae isolate 30, Sweden 2023, read-out: Minimum inhibitory concentration) was 8 µg/mL (≈ 24.1 µM), the MIC (comparator antibiotics, clinical N. gonorrhoeae isolate 31, Sweden 2023, read-out: Minimum inhibitory concentration) was 8 µg/mL (≈ 24.1 µM) and the MIC (comparator antibiotics, clinical N. gonorrhoeae isolate 32, Sweden 2023, read-out: Minimum inhibitory concentration) was 8 µg/mL (≈ 24.1 µM). It also gave an MIC (comparator antibiotics, clinical N. gonorrhoeae isolate 33, Sweden 2023, read-out: Minimum inhibitory concentration) of 8 µg/mL (≈ 24.1 µM), an MIC (comparator antibiotics, clinical N. gonorrhoeae isolate 34, Sweden 2023, read-out: Minimum inhibitory concentration) of 8 µg/mL (≈ 24.1 µM) and an MIC (comparator antibiotics, clinical N. gonorrhoeae isolate 35, Sweden 2023, read-out: Minimum inhibitory concentration) of 16 µg/mL (≈ 48.1 µM). For the same compound, the MIC (comparator antibiotics, clinical N. gonorrhoeae isolate 36, Sweden 2023, read-out: Minimum inhibitory concentration) was 8 µg/mL (≈ 24.1 µM), the MIC (comparator antibiotics, clinical N. gonorrhoeae isolate 37, Sweden 2023, read-out: Minimum inhibitory concentration) was 8 µg/mL (≈ 24.1 µM) and the MIC (comparator antibiotics, clinical N. gonorrhoeae isolate 38, Sweden 2023, read-out: Minimum inhibitory concentration) was 8 µg/mL (≈ 24.1 µM). For the same compound, the MIC (comparator antibiotics, clinical N. gonorrhoeae isolate 39, Sweden 2023, read-out: Minimum inhibitory concentration) was 16 µg/mL (≈ 48.1 µM), the MIC (comparator antibiotics, clinical N. gonorrhoeae isolate 40, Sweden 2023, read-out: Minimum inhibitory concentration) was 8 µg/mL (≈ 24.1 µM) and the MIC (comparator antibiotics, clinical N. gonorrhoeae isolate 41, Sweden 2023, read-out: Minimum inhibitory concentration) was 16 µg/mL (≈ 48.1 µM). For the same compound, the MIC (comparator antibiotics, clinical N. gonorrhoeae isolate 42, Sweden 2023, read-out: Minimum inhibitory concentration) was 8 µg/mL (≈ 24.1 µM), the MIC (comparator antibiotics, clinical N. gonorrhoeae isolate 43, Sweden 2023, read-out: Minimum inhibitory concentration) was 16 µg/mL (≈ 48.1 µM) and the MIC (comparator antibiotics, clinical N. gonorrhoeae isolate 44, Sweden 2023, read-out: Minimum inhibitory concentration) was 16 µg/mL (≈ 48.1 µM). It also gave an MIC (comparator antibiotics, clinical N. gonorrhoeae isolate 45, Sweden 2023, read-out: Minimum inhibitory concentration) of 16 µg/mL (≈ 48.1 µM), an MIC (comparator antibiotics, clinical N. gonorrhoeae isolate 46, Sweden 2023, read-out: Minimum inhibitory concentration) of 8 µg/mL (≈ 24.1 µM) and an MIC (comparator antibiotics, clinical N. gonorrhoeae isolate 47, Sweden 2023, read-out: Minimum inhibitory concentration) of 16 µg/mL (≈ 48.1 µM). The MIC (comparator antibiotics, clinical N. gonorrhoeae isolate 48, Sweden 2023, read-out: Minimum inhibitory concentration) was 8 µg/mL (≈ 24.1 µM) and the MIC (comparator antibiotics, clinical N. gonorrhoeae isolate 49, Sweden 2023, read-out: Minimum inhibitory concentration) was 16 µg/mL (≈ 48.1 µM).
